# Source: EP0428107A2, “Use of quinolyl-and isoquinolyloxanole-2-ones for the production of a medicament for the treatment of multi-drug resistant tumors” (MERRELL DOW PHARMACEUTICALS INC., priority 1989, dated 1991)
# Tested on: CHO^R cells
# Test: Reversal of multidrug resistance: cell growth of vinblastine-resistant CHO^R cells, Coulter counter cell count
# [1] = 72 h, read-out: % Inhibition of Cell Growth Compound Only
SMILES,inhibition at 0.1 µg/mL [1],inhibition at 1 µg/mL [1],inhibition at 5 µg/mL [1],inhibition at 10 µg/mL [1],"% Inhibition of Cell Growth Compound + VLB (compound 0.1 µg/ml + vinblastine 0.2 µg/ml, 72 hr)","% Inhibition of Cell Growth Compound + VLB (compound 1 µg/ml + vinblastine 0.2 µg/ml, 72 hr)","% Inhibition of Cell Growth Compound + VLB (compound 5 µg/ml + vinblastine 0.2 µg/ml, 72 hr)","% Inhibition of Cell Growth Compound + VLB (compound 10 µg/ml + vinblastine 0.2 µg/ml, 72 hr)","effect on cell growth (VLB alone at 0.2 µg/ml, 72 hr)"
CCCc1[nH]c(=O)oc1-c1ccnc2ccccc12 [4-Propyl-5-(4-Quinolinyl)-1-(3H)-Oxazolone],0%,0%,0%,14%,4%,43%,93%,93%,–
"CC[C@]1(O)C[C@@H]2CN(CCc3c([nH]c4ccccc34)[C@@](C(=O)OC)(c3cc4c(cc3OC)N(C)[C@H]3[C@@](O)(C(=O)OC)[C@H](OC(C)=O)[C@]5(CC)C=CCN6CC[C@]43[C@@H]65)C2)C1 [VLB, vinblastine, reference compound]",–,–,–,–,–,–,–,–,did not have any effect on cell growth
